Measured values from patent publication US6048872A, “Arylethanolamine derivatives and their use as agonists of atypical beta-adrenoceptors” (Glaxo Wellcome Inc., priority 1995, dated 2000).
Structures can show the parent of a compound that is named as a salt.

Tests used:
[1] = target: T1, human beta-3-adrenoceptor (Homo sapiens, UniProt P13945); test: cAMP accumulation in CHO cells transfected with the human beta-3-adrenoceptor (Method 1), potency relative to isoprenaline; type: cell-based; settings: relative potency of test agonist compared to isoprenaline (EC50 ratio), H β3 CHO cells
T1 construct: whole-cell cAMP accumulation, potency relative to isoprenaline
Protocol: […] The cell lines may also be transfected with human beta-1- and beta-2- adrenoceptor in a similar manner to provide a method of determining the selectivity of the compounds of the invention at the three receptors.
General cell culture guidelines are observed (Fershney, R. A. (1987) Culture of animal cells: A manual of basic technique. Wiley-Liss, Inc., N.Y.). A standard cell culture incubator is used (37° C., 5% CO2 in air, 95% relative humidity). H β3 CHO cells are grown in 75 ml flasks in MEMα medium containing 9% FCS & 125 μg/ml G418. One confluent flask of cells is trypsinised and resuspended in 80 ml of culture medium; 1 ml of the cell suspension is added to each well of three 24-well plates. The plates are then incubated for 1 day.
The medium is aspirated from each well, and the well rinsed with phosphate-buffered saline (PBS, this is then aspirated). 1 ml of MEMα (no FCS or G418, 300μ M IBMX) is added to each well. Antagonists, if required, are added at this stage. The plate is then placed back in the incubator for 30 min. Drugs are then added to the wells (10 μl, 100x required final concentration), the plate gently swirled to mix the drugs, and the plate placed back in the incubator for 30 min. The medium is then aspirated from each well, the well rinsed with PBS, and 0.5 ml perchloric acid (6% v/v in distilled water, 2-5° C.). The plate is left on ice for 30 min. The perchloric acid (containing cAMP) is transferred to a clean 24-well plate and the acid neutralised by addition of saturated KHCO3 solution (200 μl) to each well. The plate is then swirled and frozen (-20° C.) until cAMP is assayed. cAMP is assayed using an enzyme-immunoassay kit (Amersham).
The relative potency of each test agonist (EPMR) is compared to isoprenaline as follows: [formula] wherein EC50 is the molar concentration of agonist which produces 50% of the maximum possible response for that agonist.

[2] = system: indomethacin-induced antral damage; test: Protective effect on indomethacin-induced gastric antral lesions in the re-fed rat (Method 2); type: in vivo; settings: po, rats dosed orally 30 minutes before indomethacin 60 mg/kg s.c., antral damage assessed at 6 hours post dose
Protocol: […] The procedure is based upon that described by H. Satoh et. al., Gastroenterology, 81, 719-725 (1981) in which the effect of compounds on indomethacin-induced gastric antral lesions in the re-fed rat is investigated. Indomethacin is an example of the class of compound known as non-steroidal anti-inflammatory drugs (NSAIDs), the use of which is frequently associated with gastrointestinal ulcers.
Food (but not water) is withheld from female random hooded rats (70-120 g) for 24 hours and then the rats are re-fed with Rat and Mouse No. 1 Maintenance Diet. After 1 hour of access to food, the rats are dosed orally with either the test compound or solvent (0.5% w/v methyl cellulose in water). […]
The rat's stomach is removed (with a small amount of duodenum attached), opened along the greater curvature and the contents removed by washing with 0.9% w/v sodium chloride solution (saline). The opened stomach is pinned out (mucosal surface uppermost) on a polystyrene mat and the area of damage assessed by placing a grid (composed of 1 mm squares) over the antral region. […] The total area of antral damage is then expressed as a percentage of the total surface area of the antrum.
The protective effect of the test compound on indomethacin-induced antral damage is calculated as a percentage using the following equation: [formula]

T1 sequence (P13945 whole entry): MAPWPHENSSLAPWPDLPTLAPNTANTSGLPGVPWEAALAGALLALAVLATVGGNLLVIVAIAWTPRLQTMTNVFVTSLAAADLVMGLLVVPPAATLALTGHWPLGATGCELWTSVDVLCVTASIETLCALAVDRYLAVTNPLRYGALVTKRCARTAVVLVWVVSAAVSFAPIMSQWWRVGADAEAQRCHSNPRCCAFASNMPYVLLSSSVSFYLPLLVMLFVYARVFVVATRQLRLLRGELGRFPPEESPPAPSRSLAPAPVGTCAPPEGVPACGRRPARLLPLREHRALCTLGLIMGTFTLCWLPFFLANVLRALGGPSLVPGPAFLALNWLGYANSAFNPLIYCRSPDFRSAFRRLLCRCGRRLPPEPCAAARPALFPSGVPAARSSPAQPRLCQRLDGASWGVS

SMILES | EPMR [1] | ED50 [2] [µg/kg]
C[C@H](CNc1ccc(CC(=O)O)c(F)c1F)NC[C@H](O)c1cccc(Cl)c1 [Example 7, (4-{2R-[2-(3-Chloro-phenyl)-2R-hydroxyl-ethylamino]-propylamino}-2,3-difluoro-phenyl)-acetic acid] | 0.2 | 3
COc1cc(NC[C@@H](C)NC[C@H](O)c2cccc(Cl)c2)c(Cl)cc1CC(=O)O [Example 8, (5-Chloro-4-{2R-[2-(3-chloro-phenyl)-2R-hydroxy-ethylaminol-propylamino}-2-methoxy-phenyl)-acetic acid dihydrochloride] | 0.4 | –
C[C@H](CNc1cc(F)c(OCC(=O)O)c(F)c1)NC[C@H](O)c1cccc(Cl)c1 [Example 15, (4-{2R-[2-(3-Chloro-phenyl)-2R-hydroxy-ethylamino]-propylamino}-2,6-difluoro-phenoxy)-acetic acid] | 6.0 | –
